Experimental data: patent US12091409B2, “Ether linked triazoles as NRF2 activators” (ASTEX THERAPEUTICS LIMITED, priority 2016, dated 2024)
Structures can show the parent of a compound that is named as a salt.

Key:
[1] = tested on: COPD macrophages and alveolar macrophages from cigarette smoke-exposed mice; details: cited from earlier work
[2] = tested on: rats in a cerebral ischemia-reperfusion model; details: cited from earlier work
[3] = tested on: NRF2 wild-type but not KO mice; details: after administration of tBHQ; cited from earlier work
[4] = tested on: rats on a choline-deficient L-amino acid-defined diet; details: cited from earlier work
[5] = tested on: NQO1 specific enzyme activity in BEAS-2B cells (marker for NRF2 activation); assay: BEAS-2B NQO1 MTT Assay; type: cell-based; details: Homo sapiens, BEAS-2B, 48 h, NQO1 specific activity induction, 48 hours with compound
Procedure, shortened: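 Following 48 h compound treatment at 37° C., 5% CO2, cells were lysed and MTT cocktail added. Product formation was followed kinetically at 570 nm for 30 min. Rate (Delta OD/min) against log concentration was fitted with 3 parameters to give pEC50 for induction of NQO1 specific activity.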

Structure (SMILES)	EC50 [5] [nM]	also measured
C[S+]([O-])CCCCN=C=S (stereo not shown) [Sulforaphane]		expression of Macrophage Receptor with Collagenous structure (MARCO) [1]: increases the expression of Macrophage Receptor with Collagenous structure (MARCO)
CC(C)(C)c1cc(O)ccc1O [tert-butylhydroquinone]		cortical damage [2]: reduced cortical damage; cortical glutathione levels [3]: increased in NRF2 wild-type but not KO mice
Cc1c(-c2cnccn2)ssc1=S [oltipraz]		progression of histologic abnormalities, especially hepatic fibrosis [4]: significantly attenuated
O=C(NCc1ccccn1)Nc1nnc(-c2ccco2)o1 [NK-252]		progression of histologic abnormalities, especially hepatic fibrosis [4]: significantly attenuated
CCCn1cc(CO[C@H](c2ccc(C)c(CN(Cc3cccc(C(=O)O)c3)S(=O)(=O)c3cccc(C(=O)O)c3)c2)C(C)(C)C(=O)O)nn1 [Example 92, (R)-3-(N-(5-(2-carboxy-2-methyl-1-((1-propyl-1H-1,2,3-triazol-4-yl)methoxy)propyl)-2-methylbenzyl)-N-(3-carboxybenzyl)sulfamoyl)benzoic acid]	1000 to 10000	
Cc1ccc(C(OCc2cn(CCOCCN=[N+]=[N-])nn2)C(C)(C)C(=O)O)cc1CN1C[C@@H](C)Oc2ccccc2S1(=O)=O (single isomer, unassigned) [Example 14]	1 to 10	
CC[C@@H]1CN(Cc2cc(C(OCc3cn(Cc4cccc(-c5ccc(C(=O)O)cc5)c4)nn3)C(C)(C)C(=O)O)ccc2C)S(=O)(=O)c2ccccc2O1 (stereo partly drawn) [Example 22, 3′-((4-((2-Carboxy-1-(3-(((R)-4-ethyl-1,1-dioxido-3,4-dihydro-2H-benzo[b][1,4,5]oxathiazepin-2-yl)methyl)-4-methylphenyl)-2-methylpropoxy)methyl)-1H-1,2,3-triazol-1-yl)methyl)-[1,1′-biphenyl]-4-carboxylic acid]	1 to 10	
Cc1ccc(C(OCc2cn(CC3CC[N+]4(CCOCC4)CC3)nn2)C(C)(C)C(=O)O)cc1CN1CC(C)Oc2ccccc2S1(=O)=O (stereo in doubt) [Example 56, 3-((1-(3-Oxa-6-azaspiro[5.5]undecan-6-ium-9-ylmethyl)-1H-1,2,3-triazol-4-yl)methoxy)-2,2-dimethyl-3-(4-methyl-3-(((S)-4-methyl-1,1-dioxido-3,4-dihydro-2H-benzo[b][1,4,5]oxathiazepin-2-yl)methyl)phenyl)propanoate]	1000 to 10000	
CC[C@H]1Cc2cccnc2CN(Cc2cc([C@@H](OCc3cn(CC)nn3)C(C)(C)C(=O)O)ccc2C)C1 [Example 115, (R)-methyl 3-((1-ethyl-1H-1,2,3-triazol-4-yl)-methoxy)-3-(3-((S)-6-ethyl-6,7-dihydro-5H-pyrido[2,3-c]azepin-8(9H)-yl)methyl)-4-methylphenyl)-2,2-dimethyl-propanoic acid, trifluoroacetate]	1 to 10	
